Measured values published in patent US6649172B2, “Amphipathic aldehydes and their uses as adjuvants and immunoeffectors” (Corixa Corporation, priority 2000, dated 2003).

Assays:
CD8+, IFNγ+ cells [1] = test: CD8+, IFNγ+ lymphocytes by flow cytometry, spleen cells of vaccinated mice (Example 8); as to CTL Ratio of CD8+, IFNγ+ Lymphocytes: key: N: 1:5000-1:1000; 1N: 1:999-1:750; 2N: 1:749-1:500; 3N: 1:499-1:250; 4N: 1:249-1:200; 5N: 1:199-1:100; type: in vivo, BALB/c mice; conditions: for CTL Ratio of CD8+, IFNγ+ Lymphocytes: female BALB/c mice, s.c. days 0 and 14, spleen cells 11 days after secondary vaccination; for CTL response to the hepatitis vaccine antigen (summary in words): rHBsAg vaccine, s.c. days 0 and 14, mice, CD8+, IFNγ+ flow cytometry
Description: Spleen cells were collected from donor mice 11 days after the secondary vaccination and evaluated for CTL activity. The rHBsAg directed CTL was assessed by measurement of CD8+, IFNγ+ using flow cytometry.

[2] = test system: recombinant hepatitis B surface antigen (rHBsAg); test: Serum antibody titers to rHBsAg by ELISA after vaccination (Example 8); type: in vivo, BALB/c mice; conditions: for adjuvant activity: serum antibody production (summary in words): rHBsAg vaccine, s.c. days 0 and 14, mice
Description: Compounds 40, 42, and 44, were evaluated for adjuvant activity with a model hepatitis B vaccine. These compounds were prepared as aqueous formulations in PBS and admixed with recombinant hepatitis B surface antigen (rHBsAg) with or without the AGP adjuvant 99. Compound 99 was solubilized in an aqueous formulation containing dipalmitoylphosphatidyl choline in water. Mice were administered the vaccines on days 0 and 14 by subcutaneous (s.c.) injection. The antigen-specific immune response to rHBsAg was evaluated by measurement of serum antibody and cytotoxic T lymphocytes (CTL). The results shown in Table 3 confirm the adjuvant activity of compounds of 40, 42, and 44.

[3] = test system: sheep red blood cells (SRBC); conditions: cited from earlier work
[4] = test system: transfected P815 cell line (P815S); test: CTL activity, four hour 51Cr-release assay with spleen cells of vaccinated mice (Example 7); type: in vivo, BALB/c mice; conditions: for Percent Specific Cell Lysis (50:1): 50:1 effector:target ratio, P815S targets, spleen cells 26 days after secondary vaccination, s.c. days 0 and 21, 1 μg rHBsAg ± 1000 μg III ± 5 μg 99
Description: Fourteen days after the second injection single cell suspensions are prepared from splenic lymphocytes of 3 mice per group. The spleen cells (75×10^6) are subsequently incubated at 37° C. in 10 ml RP10-SC media containing 50 nM of an L^d-restricted HBV CTL epitope ([…]) for 4 days. Stimulated effector cells are harvested, resuspended to 5×10^6 […] and serially diluted (in triplicate) in a volume of 100 μl RP10-SC/well of a 96 well microtiter plate followed by the addition of […] of RP10-SC containing 1×10^4 51Cr labeled P815S target cells (transfected P815 cells (H-2^d) expressing the hepatitis B S-antigen). Plates are centrifuged for 5 min at 400×g and placed in a 37° C. CO2 incubator for 4 h. Percent specific cytotoxicity is then determined.
(§1) Spleen cells were collected from donor mice 26 days after the secondary vaccination and evaluated for CTL activity. rHBsAg directed specific lysis was assessed in a standard four hour ^51Cr-release assay and by measurement of CD8+, IFNγ+ using flow cytometry.

CD8+, IFNγ+ cells [5] = test: CD8+, IFNγ+ lymphocytes by flow cytometry, spleen cells of vaccinated mice (Example 7); also: key: N: 1:5000-1:1000; 1N: 1:999-1:750; 2N: 1:749-1:500; 3N: 1:499-1:250; 4N: 1:249-1:200; 5N: 1:199-1:100; type: in vivo, BALB/c mice; conditions: spleen cells 26 days after secondary vaccination, 75 nM CTL epitope peptide, six-hour incubation; s.c. days 0 and 21, 1 μg rHBsAg ± 1000 μg III ± 5 μg 99
Description: as §1

[6] = test system: recombinant hepatitis B surface antigen (rHBsAg); test: Serum antibody titers to rHBsAg by ELISA after vaccination (Example 7); type: in vivo, BALB/c mice
Description: For the evaluation of antibody responses, […] by vaginal wash and individually tested for HBsAg-specific antibody activity by enzyme-linked immunosorbent assay (ELISA). The endpoint antibody titers of each mouse are evaluated as total IgG, IgG1, IgG2a, IgG2b and IgA specific for rHBsAg.
Compound III, isotucaresol, was evaluated for adjuvant activity with a model hepatitis B vaccine. III, was prepared as an aqueous formulation in PBS and admixed with recombinant hepatitis B surface antigen (rHBsAg) (Rhein Biotech, Düisseldorf, Germany) with or without the AGP adjuvant 99 (2-[(R)-3-tetradecanoyloxytetradecanoylamino]ethyl 2-Deoxy-4-O-phosphono-3-O-[(R)-3-tetradecanoyloxytetradecanoyl]-2-[(R)-3-tetradecanoyloxytetradecanoylamino]-β-D-glucopyranoside Triethylammonium Salt). Mice were administered the vaccines on days 0 and 21 by subcutaneous (s.c.) injection of vaccine containing 1 μg rHBsAg±1000 μg III±5 μg 99. The antigen-specific immune response to rHBsAg was evaluated by measurement of serum antibody and cytotoxic T lymphocytes (CTL).

[7] = adjuvant dose 250 μg with rHBsAg
[8] = adjuvant dose 500 μg with rHBsAg
[9] = adjuvant dose 1000 μg with rHBsAg
[10] = 1 μg rHBsAg + 1000 μg III + 5 μg 99, s.c. days 0 and 21, mice
[11] = female BALB/c mice, s.c. days 0 and 21, 1 μg rHBsAg ± 1000 μg III ± 5 μg 99, serum 21 days post-secondary vaccination, ELISA
[12] = adjuvant dose 250 μg with rHBsAg, female BALB/c mice, s.c. days 0 and 14, serum 11 days post-secondary vaccination, ELISA
[13] = adjuvant dose 5 μg with rHBsAg, female BALB/c mice, s.c. days 0 and 14, serum 11 days post-secondary vaccination, ELISA

Compound	CTL Ratio of CD8+, IFNγ+ Lymphocytes (CD8+, IFNγ+ cells [1]; [7]) [N]	CTL Ratio of CD8+, IFNγ+ Lymphocytes (CD8+, IFNγ+ cells [1]; [8]) [N]	CTL Ratio of CD8+, IFNγ+ Lymphocytes (CD8+, IFNγ+ cells [1]; [9]) [N]	CTL response to the hepatitis vaccine antigen (summary in words) (CD8+, IFNγ+ cells [1])	adjuvant activity: serum antibody production (summary in words) [2]	Percent Specific Cell Lysis (50:1) [4]	Lymphocytes CD8+, IFNγ+ (ratio of CD8+, IFNγ+ cells to total CD8+ cells) (CD8+, IFNγ+ cells [5]) [N]	melting point	Gross Geometric Mean Serum Titers IgG1 [6, 11]	Gross Geometric Serum Titers IgG1 [2, 12]	also measured
O=Cc1cc(OCc2ccc(C(=O)O)cc2)ccc1OCCCC(=O)O [Compound 44]	4	3	2	enhance the CTL response	enhanced serum antibody production						
C[C@@H]1CC[C@@]2(OC1)O[C@H]1[C@@H](O)[C@H]3[C@@H]4CC[C@H]5C[C@@H](O[C@@H]6O[C@H](CO)[C@H](O[C@@H]7O[C@H](CO)[C@@H](O)[C@H](O[C@@H]8OC[C@@H](O)[C@H](O)[C@H]8O)[C@H]7O[C@@H]7O[C@H](CO)[C@H](O)[C@H](O[C@@H]8O[C@H](CO)[C@@H](O)[C@H](O)[C@H]8O)[C@H]7O)[C@H](O)[C@H]6O)[C@H](O)C[C@]5(C)[C@H]4CC[C@]3(C)[C@H]1[C@@H]2C [digitonin]											hemolytic activity towards red blood cells [3]: highly hemolytic
O=Cc1cc(OCc2ccc(C(=O)O)cc2)ccc1O [Compound III, 4-[(3-formyl-4-hydroxyphenoxy)methyl]benzoic acid]						4+ (“4+” is 31-40 Percent Specific Cell Lysis)	2	222 to 224 °C (dec.)	5,000X		effect on the CTL adjuvant activity induced by 99 (summary in words) [4, 10]: additive effect; CTL response to the vaccine antigen (summary in words) ([4]; 1 μg rHBsAg + 1000 μg III, s.c. days 0 and 21, mice, 51Cr-release and CD8+, IFNγ+ flow cytometry): enhances the CTL response; interaction with the AGP adjuvant 99 on serum antibody (summary in words) [6, 10]: acts synergistically; adjuvant activity: serum antibody production (summary in words) ([6]; 1 μg rHBsAg + 1000 μg III, s.c. days 0 and 21, mice): enhanced serum antibody production; Gross Geometric Mean Serum Titers IgG [6, 11]: 5,000X
O=Cc1cc(OCc2ccc(C(=O)O)cc2)ccc1OCC(=O)O [Compound 42, 4-[(4-carboxymethoxy-3-formyl-phenoxy)methyl]benzoic acid]	5	3	2	enhance the CTL response	enhanced serum antibody production			239 to 242 °C (dec.)		1,000X	
COC(=O)c1ccc(COc2ccc(O)c(C=O)c2)cc1 [Compound 40, methyl 4-(3-formyl-4-hydroxyphenoxymethyl)benzoate]	3	2	5	enhance the CTL response	enhanced serum antibody production			132 to 134 °C		1,000X	Gross Geometric Serum Titers IgG1 ([2]; adjuvant dose 500 μg with rHBsAg, female BALB/c mice, s.c. days 0 and 14, serum 11 days post-secondary vaccination, ELISA): 5,000X; Gross Geometric Serum Titers IgG1 ([2]; adjuvant dose 1000 μg with rHBsAg, female BALB/c mice, s.c. days 0 and 14, serum 11 days post-secondary vaccination, ELISA): 5,000X
2-[(R)-3-tetradecanoyloxytetradecanoylamino]ethyl 2-Deoxy-4-O-phosphono-3-O-[(R)-3-tetradecanoyloxytetradecanoyl]-2-[(R)-3-tetradecanoyloxytetradecanoylamino]-β-D-glucopyranoside triethylammonium salt [Compound 99, reference compound]						5+ (“5+” is 41-50 Percent Specific Cell Lysis)	3		5,000X		CTL Ratio of CD8+, IFNγ+ Lymphocytes (CD8+, IFNγ+ cells [1]; adjuvant dose 5 μg with rHBsAg): 4N; Gross Geometric Mean Serum Titers IgG2a [6, 11]: 5,000X; Gross Geometric Serum Titers IGG [2, 13]: 5,000X; Gross Geometric Serum Titers IgG2a [2, 13]: 5,000X
